Test results published in patent US8192962B2, “Processes for detecting toxic substances” (Daikin Industries, Ltd., priority 2001, dated 2012).

Tested on: Stress protein genes
Assay: DNA chip mRNA expression in yeast, stress protein genes (Table 6)
Type: cell-based, Saccharomyces cerevisiae S288C
Method: Yeast (Saccharomyces cerevisiae S288C (α SUC2mal mel gap2 CUP1)) were incubated at 25° C. on YPD medium (yeast extract 1%, polypepton 2%, glucose 2%). One of toxic chemical substances was added to the cells at logarithmic growth phase, and the cells were further incubated for two hours. Cells were cultured without any chemical substance in the same condition, and were used as control. Concentrations of the chemical substances were defined to inhibit the growth of the yeast but not lead to death.
After completion of the incubation, the culture was centrifuged to collect the cells. To the cells, sodium acetate buffer (50 mM sodium acetate, 10 mM EDTA, 1% SDS) was added, and the mixture was shaken at 65° C. for five minutes, followed by returning to room temperature, and obtaining the supernatant, of which the procedures were repeated two times. To the supernatant, ½ amount of a solution of phenol/chloroform was added, and the mixture was centrifuged to give a supernatant, which was added with an equal amount of chloroform, and the mixture was centrifuged to give a supernatant. To the supernatant, an equal amount of isopropanol containing 0.3 M sodium acetate was added, and the mixture was allowed to stand at room temperature for 30 minutes, after which the mixture was centrifuged to give a sediment of the whole RNAs. Seventy % ethanol was added to the sediment, and the mixture was again centrifuged to give a sediment, which was then dried and dissolved in water. mRNA was isolated from the whole RNAs as followings. In view of the fact that a poly A chain is attached to the 3′ terminus of mRNA, a polynucleotide having a poly T structure which was immobilized on the surface of latex beads was used to trap the mRNA, and then the mRNA was washed and eluted with spine column (Oligotex-dT30<Super>mRNA Purification Kit, Takara). Reverse transcription of the mRNA was conducted with a reverse transcriptase (Super Script II Reverse Transcriptase; catalogue No. 18064-014, GibcoBRL) using fluorescence-labeled nucleotides to give cDNAs that were introduced with Cy3-dUTP or Cy5-dUTP during the reverse transcription.
The labeled cDNAs were dissolved in TE buffer (10mM Tris-HCl/1 mM EDTA, pH8.0), and the solution was dropped on the DNA chip containing the whole genes of yeast (DNA Chip Research Inc. Japan) so that the cDNAs were hybridized on the DNA chip at 65° C. for over 12 hours. The fluoresces intensity of the DNA chip was read with a scanner, and the ratio relative to the fluorescence intensity resulting from the absence of chemical substance was estimated as the following, which is shown in Tables 1 to 9: […]

## [Cl][Cd][Cl] [(2), CdCl2]
Yeast gene YIL033C
  The level of expressed mRNA in the presence of chemical substance/The level of expressed mRNA in the absence of chemical substance: 1.3
Yeast gene YIR037W
  The level of expressed mRNA in the presence of chemical substance/The level of expressed mRNA in the absence of chemical substance: 2.2
Yeast gene YIR038C
  The level of expressed mRNA in the presence of chemical substance/The level of expressed mRNA in the absence of chemical substance: 3.5
Yeast gene YJL128C
  The level of expressed mRNA in the presence of chemical substance/The level of expressed mRNA in the absence of chemical substance: 1.4
Yeast gene YJL158C
  The level of expressed mRNA in the presence of chemical substance/The level of expressed mRNA in the absence of chemical substance: 0.6
Yeast gene YJL159W
  The level of expressed mRNA in the presence of chemical substance/The level of expressed mRNA in the absence of chemical substance: 1.3
Yeast gene YJL165C
  The level of expressed mRNA in the presence of chemical substance/The level of expressed mRNA in the absence of chemical substance: 0.8
Yeast gene YJR045C
  The level of expressed mRNA in the presence of chemical substance/The level of expressed mRNA in the absence of chemical substance: 1.9
Yeast gene YJR090C
  The level of expressed mRNA in the presence of chemical substance/The level of expressed mRNA in the absence of chemical substance: 1.0
Yeast gene YKL161C
  The level of expressed mRNA in the presence of chemical substance/The level of expressed mRNA in the absence of chemical substance: 0.8
Yeast gene YKL163W
  The level of expressed mRNA in the presence of chemical substance/The level of expressed mRNA in the absence of chemical substance: 1.4
Yeast gene YKL164C
  The level of expressed mRNA in the presence of chemical substance/The level of expressed mRNA in the absence of chemical substance: 1.1
Yeast gene YKL210W
  The level of expressed mRNA in the presence of chemical substance/The level of expressed mRNA in the absence of chemical substance: 1.7
Yeast gene YKR053C
  The level of expressed mRNA in the presence of chemical substance/The level of expressed mRNA in the absence of chemical substance: 2.0
Yeast gene YLL024C
  The level of expressed mRNA in the presence of chemical substance/The level of expressed mRNA in the absence of chemical substance: 1.6
Yeast gene YLL026W
  The level of expressed mRNA in the presence of chemical substance/The level of expressed mRNA in the absence of chemical substance: 2.9
Yeast gene YLL039C
  The level of expressed mRNA in the presence of chemical substance/The level of expressed mRNA in the absence of chemical substance: 1.0
Yeast gene YLL060C
  The level of expressed mRNA in the presence of chemical substance/The level of expressed mRNA in the absence of chemical substance: 4.2
Yeast gene YLR006C
  The level of expressed mRNA in the presence of chemical substance/The level of expressed mRNA in the absence of chemical substance: 0.7
Yeast gene YLR109W
  The level of expressed mRNA in the presence of chemical substance/The level of expressed mRNA in the absence of chemical substance: 2.9
Yeast gene YLR259C
  The level of expressed mRNA in the presence of chemical substance/The level of expressed mRNA in the absence of chemical substance: 1.0
Yeast gene YML007W
  The level of expressed mRNA in the presence of chemical substance/The level of expressed mRNA in the absence of chemical substance: 0.8
Yeast gene YML070W
  The level of expressed mRNA in the presence of chemical substance/The level of expressed mRNA in the absence of chemical substance: 1.7
Yeast gene YMR021C
  The level of expressed mRNA in the presence of chemical substance/The level of expressed mRNA in the absence of chemical substance: 0.7
Yeast gene YMR173W
  The level of expressed mRNA in the presence of chemical substance/The level of expressed mRNA in the absence of chemical substance: 3.6
Yeast gene YMR186W
  The level of expressed mRNA in the presence of chemical substance/The level of expressed mRNA in the absence of chemical substance: 1.4
Yeast gene YNL064C
  The level of expressed mRNA in the presence of chemical substance/The level of expressed mRNA in the absence of chemical substance: 1.8
Yeast gene YNL160W
  The level of expressed mRNA in the presence of chemical substance/The level of expressed mRNA in the absence of chemical substance: 3.7
Yeast gene YNL241C
  The level of expressed mRNA in the presence of chemical substance/The level of expressed mRNA in the absence of chemical substance: 2.5
Yeast gene YNR076W
  The level of expressed mRNA in the presence of chemical substance/The level of expressed mRNA in the absence of chemical substance: 1.3
Yeast gene YOL064C
  The level of expressed mRNA in the presence of chemical substance/The level of expressed mRNA in the absence of chemical substance: 2.1
Yeast gene YOL161C
  The level of expressed mRNA in the presence of chemical substance/The level of expressed mRNA in the absence of chemical substance: 1.1
Yeast gene YOR008C
  The level of expressed mRNA in the presence of chemical substance/The level of expressed mRNA in the absence of chemical substance: 0.8
Yeast gene YOR009W
  The level of expressed mRNA in the presence of chemical substance/The level of expressed mRNA in the absence of chemical substance: 0.8
Yeast gene YOR010C
  The level of expressed mRNA in the presence of chemical substance/The level of expressed mRNA in the absence of chemical substance: 0.7
Yeast gene YOR027W
  The level of expressed mRNA in the presence of chemical substance/The level of expressed mRNA in the absence of chemical substance: 2.4
Yeast gene YOR208W
  The level of expressed mRNA in the presence of chemical substance/The level of expressed mRNA in the absence of chemical substance: 1.0
Yeast gene YPL059W
  The level of expressed mRNA in the presence of chemical substance/The level of expressed mRNA in the absence of chemical substance: 0.9
Yeast gene YPL106C
  The level of expressed mRNA in the presence of chemical substance/The level of expressed mRNA in the absence of chemical substance: 1.7
Yeast gene YPL140C
  The level of expressed mRNA in the presence of chemical substance/The level of expressed mRNA in the absence of chemical substance: 1.3
Yeast gene YPL194W
  The level of expressed mRNA in the presence of chemical substance/The level of expressed mRNA in the absence of chemical substance: 1.4
Yeast gene YPL223C
  The level of expressed mRNA in the presence of chemical substance/The level of expressed mRNA in the absence of chemical substance: 20.0
Yeast gene YPL240C
  The level of expressed mRNA in the presence of chemical substance/The level of expressed mRNA in the absence of chemical substance: 1.4
Yeast gene YPR005C
  The level of expressed mRNA in the presence of chemical substance/The level of expressed mRNA in the absence of chemical substance: 0.8
Yeast gene YPR026W
  The level of expressed mRNA in the presence of chemical substance/The level of expressed mRNA in the absence of chemical substance: 1.2
